Columns and labels:
[1] = target: Neuronal acetylcholine receptor subunit alpha-4 (Homo sapiens, UniProt P43681)
Endothelin-1 receptor = target: T1, Endothelin-1 receptor (Homo sapiens, UniProt P25101)
T1 sequence (P25101 whole entry): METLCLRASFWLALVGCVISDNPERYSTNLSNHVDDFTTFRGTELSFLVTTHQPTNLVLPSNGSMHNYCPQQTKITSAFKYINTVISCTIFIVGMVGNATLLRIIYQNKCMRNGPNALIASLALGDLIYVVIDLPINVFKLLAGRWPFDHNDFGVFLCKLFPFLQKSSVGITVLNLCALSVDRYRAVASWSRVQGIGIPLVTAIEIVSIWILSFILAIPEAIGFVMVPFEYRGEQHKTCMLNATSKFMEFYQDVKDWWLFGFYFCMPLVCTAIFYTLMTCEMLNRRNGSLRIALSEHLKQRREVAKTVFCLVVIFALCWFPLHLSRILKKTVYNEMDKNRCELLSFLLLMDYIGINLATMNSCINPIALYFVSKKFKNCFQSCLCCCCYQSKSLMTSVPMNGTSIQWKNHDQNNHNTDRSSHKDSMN

[2] = target: 5-hydroxytryptamine receptor 2B (Homo sapiens, UniProt P41595); format: functional, cell-based
Sequence of 5-hydroxytryptamine receptor 2B (P41595 whole entry): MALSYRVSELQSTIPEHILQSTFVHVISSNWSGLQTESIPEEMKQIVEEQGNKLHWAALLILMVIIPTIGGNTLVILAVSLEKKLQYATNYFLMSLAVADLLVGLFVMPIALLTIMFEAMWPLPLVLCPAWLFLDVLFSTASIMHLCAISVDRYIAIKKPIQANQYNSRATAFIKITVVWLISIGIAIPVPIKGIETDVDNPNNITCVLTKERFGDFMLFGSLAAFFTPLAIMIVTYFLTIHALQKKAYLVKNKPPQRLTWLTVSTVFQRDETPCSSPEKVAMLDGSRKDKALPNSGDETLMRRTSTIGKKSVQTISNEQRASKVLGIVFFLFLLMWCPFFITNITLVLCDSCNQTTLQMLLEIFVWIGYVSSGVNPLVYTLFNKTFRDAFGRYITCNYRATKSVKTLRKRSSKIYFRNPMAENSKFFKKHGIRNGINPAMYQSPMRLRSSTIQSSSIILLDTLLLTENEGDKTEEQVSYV

[3] = target: T2, Alpha-2B adrenergic receptor (Homo sapiens, UniProt P18089)
T2 sequence (P18089 whole entry): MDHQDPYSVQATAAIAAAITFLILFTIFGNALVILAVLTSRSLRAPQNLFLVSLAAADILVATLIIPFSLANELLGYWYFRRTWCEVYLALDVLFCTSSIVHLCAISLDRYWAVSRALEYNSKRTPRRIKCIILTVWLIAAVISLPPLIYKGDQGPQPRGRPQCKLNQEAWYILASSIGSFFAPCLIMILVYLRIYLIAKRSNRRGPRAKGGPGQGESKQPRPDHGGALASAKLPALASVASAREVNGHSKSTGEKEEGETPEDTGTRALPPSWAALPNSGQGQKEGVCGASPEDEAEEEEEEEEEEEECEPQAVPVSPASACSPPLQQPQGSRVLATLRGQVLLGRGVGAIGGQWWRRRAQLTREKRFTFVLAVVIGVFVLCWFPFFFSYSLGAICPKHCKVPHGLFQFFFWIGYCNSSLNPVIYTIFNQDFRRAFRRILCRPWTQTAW

[4] = target: Sodium-dependent dopamine transporter (Homo sapiens, UniProt Q01959)
Sequence of Sodium-dependent dopamine transporter (Q01959 whole entry): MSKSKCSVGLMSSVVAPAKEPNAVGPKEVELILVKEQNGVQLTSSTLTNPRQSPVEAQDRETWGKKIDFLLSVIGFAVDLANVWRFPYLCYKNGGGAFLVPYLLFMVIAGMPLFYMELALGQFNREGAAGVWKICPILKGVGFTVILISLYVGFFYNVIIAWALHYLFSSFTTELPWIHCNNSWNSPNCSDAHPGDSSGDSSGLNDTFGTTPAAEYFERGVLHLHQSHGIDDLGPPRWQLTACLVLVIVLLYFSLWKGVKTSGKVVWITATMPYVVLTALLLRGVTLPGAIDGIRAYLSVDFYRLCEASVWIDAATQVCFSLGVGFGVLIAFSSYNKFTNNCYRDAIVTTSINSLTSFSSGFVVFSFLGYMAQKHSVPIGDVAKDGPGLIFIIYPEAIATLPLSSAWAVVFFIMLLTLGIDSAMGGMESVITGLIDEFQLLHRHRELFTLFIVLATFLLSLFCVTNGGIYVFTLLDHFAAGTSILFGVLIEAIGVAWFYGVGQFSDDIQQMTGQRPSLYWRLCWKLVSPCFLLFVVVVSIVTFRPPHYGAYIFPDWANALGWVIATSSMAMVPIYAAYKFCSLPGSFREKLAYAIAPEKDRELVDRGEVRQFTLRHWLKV

Glucocorticoid receptor = target: T3, Glucocorticoid receptor (Homo sapiens, UniProt P04150)
T3 sequence (P04150 whole entry): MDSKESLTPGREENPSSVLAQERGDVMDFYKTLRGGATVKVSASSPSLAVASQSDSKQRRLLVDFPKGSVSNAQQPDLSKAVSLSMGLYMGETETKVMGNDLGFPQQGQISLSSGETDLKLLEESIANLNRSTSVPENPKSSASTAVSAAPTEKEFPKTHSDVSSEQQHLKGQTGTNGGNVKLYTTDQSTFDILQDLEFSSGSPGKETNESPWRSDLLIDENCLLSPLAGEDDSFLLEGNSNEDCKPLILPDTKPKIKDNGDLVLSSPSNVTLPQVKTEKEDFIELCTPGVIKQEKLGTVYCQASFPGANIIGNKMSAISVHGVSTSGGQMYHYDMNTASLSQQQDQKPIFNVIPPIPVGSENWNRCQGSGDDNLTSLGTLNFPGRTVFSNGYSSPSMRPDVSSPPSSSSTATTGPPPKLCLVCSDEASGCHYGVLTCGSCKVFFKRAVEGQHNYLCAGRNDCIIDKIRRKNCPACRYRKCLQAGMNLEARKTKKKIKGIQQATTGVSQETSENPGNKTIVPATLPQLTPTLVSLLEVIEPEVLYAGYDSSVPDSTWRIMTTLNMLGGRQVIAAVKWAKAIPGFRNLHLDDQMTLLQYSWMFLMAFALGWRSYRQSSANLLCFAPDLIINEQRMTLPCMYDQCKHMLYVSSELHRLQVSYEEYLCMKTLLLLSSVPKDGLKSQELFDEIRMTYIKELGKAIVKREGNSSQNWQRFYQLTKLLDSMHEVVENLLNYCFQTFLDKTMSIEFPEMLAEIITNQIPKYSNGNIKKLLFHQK

[5] = target: 3',5'-cyclic-AMP phosphodiesterase 4D (Homo sapiens, UniProt Q08499); format: functional
Sequence of 3',5'-cyclic-AMP phosphodiesterase 4D (Q08499 whole entry): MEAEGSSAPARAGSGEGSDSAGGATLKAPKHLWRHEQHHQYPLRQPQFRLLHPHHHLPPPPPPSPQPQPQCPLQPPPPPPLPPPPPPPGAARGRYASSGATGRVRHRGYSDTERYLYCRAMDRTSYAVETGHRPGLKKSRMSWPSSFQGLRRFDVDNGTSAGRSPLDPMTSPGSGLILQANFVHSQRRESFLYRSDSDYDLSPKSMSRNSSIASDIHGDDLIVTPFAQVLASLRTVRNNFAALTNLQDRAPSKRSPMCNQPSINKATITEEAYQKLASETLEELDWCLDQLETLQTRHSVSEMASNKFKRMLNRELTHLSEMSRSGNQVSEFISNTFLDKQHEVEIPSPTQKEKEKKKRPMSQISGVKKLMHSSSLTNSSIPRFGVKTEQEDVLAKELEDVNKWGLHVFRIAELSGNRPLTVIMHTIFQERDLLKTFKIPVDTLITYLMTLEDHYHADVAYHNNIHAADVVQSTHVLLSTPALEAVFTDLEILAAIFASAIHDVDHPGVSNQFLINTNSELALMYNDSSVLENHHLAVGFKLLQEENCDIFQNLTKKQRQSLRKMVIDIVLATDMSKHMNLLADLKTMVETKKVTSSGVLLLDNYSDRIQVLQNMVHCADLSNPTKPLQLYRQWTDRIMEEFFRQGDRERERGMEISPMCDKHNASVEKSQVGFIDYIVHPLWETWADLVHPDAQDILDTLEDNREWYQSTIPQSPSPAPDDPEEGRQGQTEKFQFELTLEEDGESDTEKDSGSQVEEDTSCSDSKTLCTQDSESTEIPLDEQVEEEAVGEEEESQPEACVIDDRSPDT

Adenosine receptor A2a = Adenosine receptor A2a (Homo sapiens, UniProt P29274)
Sequence of Adenosine receptor A2a (P29274 whole entry): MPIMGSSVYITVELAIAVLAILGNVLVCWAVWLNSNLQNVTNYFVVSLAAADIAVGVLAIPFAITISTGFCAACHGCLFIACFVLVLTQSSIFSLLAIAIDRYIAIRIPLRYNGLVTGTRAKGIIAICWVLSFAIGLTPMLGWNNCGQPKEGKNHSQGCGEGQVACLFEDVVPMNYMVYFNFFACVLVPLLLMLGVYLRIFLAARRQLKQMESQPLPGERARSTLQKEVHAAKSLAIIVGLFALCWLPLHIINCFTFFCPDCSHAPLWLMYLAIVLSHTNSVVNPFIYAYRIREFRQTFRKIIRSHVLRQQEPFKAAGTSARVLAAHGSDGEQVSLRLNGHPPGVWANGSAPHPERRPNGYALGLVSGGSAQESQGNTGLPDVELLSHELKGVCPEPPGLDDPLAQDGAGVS

Thromboxane A2 receptor = target: T4, Thromboxane A2 receptor (Homo sapiens, UniProt P21731)
T4 sequence (P21731 whole entry): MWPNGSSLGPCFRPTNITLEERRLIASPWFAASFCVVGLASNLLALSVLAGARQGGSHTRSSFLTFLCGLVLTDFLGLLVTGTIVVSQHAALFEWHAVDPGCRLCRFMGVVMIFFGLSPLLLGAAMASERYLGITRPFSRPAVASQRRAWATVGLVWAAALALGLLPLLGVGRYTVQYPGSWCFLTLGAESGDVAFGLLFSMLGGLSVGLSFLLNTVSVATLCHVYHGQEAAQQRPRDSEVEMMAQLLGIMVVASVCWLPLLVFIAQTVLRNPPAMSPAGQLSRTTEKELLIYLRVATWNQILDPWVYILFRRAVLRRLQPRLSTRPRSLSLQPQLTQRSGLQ

[6] = target: T5, Gastrin/cholecystokinin type B receptor (Homo sapiens, UniProt P32239)
T5 sequence (P32239 whole entry): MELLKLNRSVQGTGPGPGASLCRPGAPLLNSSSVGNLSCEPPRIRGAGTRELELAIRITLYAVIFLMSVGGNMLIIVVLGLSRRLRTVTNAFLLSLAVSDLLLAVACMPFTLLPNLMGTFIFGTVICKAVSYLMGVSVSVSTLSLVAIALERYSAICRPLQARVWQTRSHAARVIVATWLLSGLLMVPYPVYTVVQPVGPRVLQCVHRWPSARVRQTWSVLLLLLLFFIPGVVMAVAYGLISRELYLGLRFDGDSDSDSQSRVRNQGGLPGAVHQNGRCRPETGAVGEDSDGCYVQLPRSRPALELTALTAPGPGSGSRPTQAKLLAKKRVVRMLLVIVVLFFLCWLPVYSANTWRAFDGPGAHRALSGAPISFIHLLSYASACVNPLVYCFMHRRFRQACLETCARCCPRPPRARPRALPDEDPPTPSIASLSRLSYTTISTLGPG
Also: assay procedure not described here.

Sequence of Neuronal acetylcholine receptor subunit alpha-4 (P43681 whole entry): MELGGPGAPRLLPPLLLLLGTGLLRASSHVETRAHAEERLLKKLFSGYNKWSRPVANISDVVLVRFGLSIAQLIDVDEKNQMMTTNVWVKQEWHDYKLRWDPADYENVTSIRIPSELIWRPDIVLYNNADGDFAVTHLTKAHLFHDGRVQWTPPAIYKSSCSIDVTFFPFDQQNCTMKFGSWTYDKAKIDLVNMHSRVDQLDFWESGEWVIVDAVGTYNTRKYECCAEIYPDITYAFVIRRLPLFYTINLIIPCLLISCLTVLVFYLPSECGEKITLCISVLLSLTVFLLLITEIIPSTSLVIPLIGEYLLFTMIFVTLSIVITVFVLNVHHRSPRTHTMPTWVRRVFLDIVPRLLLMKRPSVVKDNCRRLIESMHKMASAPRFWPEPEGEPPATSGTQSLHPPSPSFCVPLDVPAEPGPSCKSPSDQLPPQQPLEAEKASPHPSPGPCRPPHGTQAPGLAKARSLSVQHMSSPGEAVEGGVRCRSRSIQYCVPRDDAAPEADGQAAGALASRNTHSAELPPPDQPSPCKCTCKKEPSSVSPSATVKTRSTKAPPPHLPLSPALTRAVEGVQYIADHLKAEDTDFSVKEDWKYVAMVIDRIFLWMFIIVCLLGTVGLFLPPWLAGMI

Row | Molecule | AC50 [1] [µM] | AC50 (Endothelin-1 receptor) [µM] | AC50 [2] [µM] | AC50 [3] [µM] | AC50 [4] [µM] | AC50 (Glucocorticoid receptor) [µM] | AC50 [5] [µM] | AC50 (Adenosine receptor A2a) [µM] | AC50 (Thromboxane A2 receptor) [µM] | AC50 [6] [µM]
1 | C#C[C@]1(O)CC[C@H]2[C@@H]3CCC4=CCCC[C@@H]4[C@H]3CC[C@@]21C [LYNESTRENOL] | > 30 | > 30 | > 30 | > 30 | > 30 | > 30 | > 30 | > 30 | > 30 | > 30
2 | CCCCC(C)(O)C/C=C/[C@H]1[C@H](O)CC(=O)[C@@H]1CCCCCCC(=O)OC (stereo not given in full) [MISOPROSTOL] | > 30 | > 30 | > 30 | > 30 | > 30 | > 30 | > 30 | > 30 | > 30 | > 30
3 | O=C(OCCN1CCOCC1)c1cccnc1Nc1cccc(C(F)(F)F)c1 [MORNIFLUMATE] | > 30 | > 30 | 10 | > 30 | 12 | > 30 | 4.3 | > 30 | > 30 | > 30
4 | CCCCCCCCOc1ccccc1C(=O)Nc1ccc(C(=O)OCC[N+](C)(CC)CC)cc1 [OTILONIUM BROMIDE] | > 30 | > 1 | 3.1 | 2.9 | 4.4 | 11 | 2.5 | 5.3 | > 30 | > 1
5 | O=C(O)CCCc1ccccc1 [PHENYLBUTANOIC ACID] | > 10 | > 30 | > 30 | > 30 | 3.2 | > 30 | > 30 | > 10 | > 10 | > 10
6 | Cc1c(Cl)cccc1Nc1ccccc1C(=O)O [TOLFENAMIC ACID] | > 30 | > 30 | > 30 | > 30 | > 30 | > 30 | > 30 | > 30 | > 30 | > 10
7 | COc1ccc(C(=O)N2CCN(c3ccc4c(c3)CCC(=O)N4)CC2)cc1OC [VESNARINONE] | > 30 | > 30 | > 30 | > 30 | > 30 | 8 | > 30 | > 30 | > 30 | > 30
8 | Cc1ccc(-c2nc3ccc(C)cn3c2CC(=O)N(C)C)cc1 [ZOLPIDEM] | > 30 | > 30 | 29 | > 30 | > 30 | > 30 | > 30 | > 30 | > 30 | > 30
9 | TOCOFERSOLAN | > 30 | > 30 | > 30 | > 30 | > 30 | > 30 | > 10 | > 30 | > 30 | > 30
